These results are taken from patent publication US3966731A, “2-Fluoromethyl-3-o-tolyl-6-amino-4(3H)-quinazolinone” (Tanabe Seiyaku Co., Ltd., priority 1973, dated 1976).

Series [1] relates to mice. The series is described as follows: Muscle relaxing activity, traction method (oral, mice). Format: in vivo. The settings on record: Mus musculus, 10, 20 and 30 minutes after dosing. How it is done:
(§1) (A) :Activity examined by the traction method. A drug was administered
(§2) orally to mice. After 10, 20 and 30 minutes of the dosing, the mice were
(§3) suspended by the forepaws to a metallic wire of 1 mm in diameter.
(§4) ED50 of the drug was estimated from the number of mice which fell ou
(§5) of the wire within 10 seconds.

The test system of series [2] is mice. The series is described as follows: Muscle relaxing activity, inclined plate method (oral, mice). As to conditions: Mus musculus, 15, 30 and 45 minutes after dosing, read-out: Muscle relaxing activity ED50 (B). Type of series: in vivo. How it is done: (§6) (B) :Activity examined by the inclined plate method. A drug was
(§7) administered orally to mice. After 15, 30 and 45 minutes of the dosing,
(§8) the mice were put on the center of a canvas (60 cm in length and 50 cm in
(§9) width) having been set up with an inclination of 60 degrees. ED50 of
(§10) the drug was estimated from the number of mice which slipped down from th
(§11) canvas within one minute.

The subject of series [3] is mice. The series is described as follows: Muscle relaxing activity, rotating rod method (oral, mice). Format: in vivo. The settings on record: Mus musculus, 0.5 h, 30 minutes after dosing, read-out: Muscle relaxing activity ED50 (C). The procedure:
(§12) (C) :Activity examined by the rotating rod method. A drug was administere
(§13) orally to mice. After 30 minutes of the dosing, the mice were placed for
(§14) minutes on rotating rods (3.5 cm in diameter, 14 rpm.). ED50 of the
(§15) drug was estimated from the number of mice which fell out of the rods

The nature of series [4]: Hypnotic activity, loss of righting reflex (oral, mice); therapeutic index. Type of series: in vivo. The settings on record: mouse, in vivo, mice, oral; for selectivity ratio: po; for TD50: loss of righting reflex for more than 20 seconds in 50 % of the mice, read-out: Side effect: Hypnotic activity HD50 (D). The procedure: (§16) (D) :A drug was administered orally to mice. The hypnotic activity of the
(§17) drug was determined by the number of mice which lost righting reflex for
(§18) more than 20 seconds. HD50 of the drug was estimated as the dose
(§19) which was required to produce the losing of righting reflex in 50 % of th
(§20) Therapeutic index and Safety margin: Said index and margin were calculate

Series [5] is described as follows: Acute toxicity (oral, mice, 72 hours); safety margin. Format: in vivo. The settings on record: mouse, in vivo, mice, oral; for selectivity ratio: po; for LD50 at 72 h: died 72 hours after dosing, read-out: Side effect: Acute toxicity LD50 (E). How it is done: (§21) (E) :A drug was administered orally to mice. The 50 % lethal dose
(§22) (LD50) of the drug was estimated from the number of mice which died
(§23) 72 hours after the dosing.
as §20

Series [6] deals with cardiazol-induced convulsive death in mice. The series is described as follows: Anti-cardiazol activity, protection from cardiazol-induced convulsive death. As to conditions: for ED50: Mus musculus, oral, 125 mg of cardiazol s.c. 30 minutes after dosing, protection at 60 minutes. Format: in vivo. The procedure: (§24) The quinazolinone derivative [I] of the present invention has potent tranquilizing, anti-convulsive and analgesic activities. […] On the other hand, when examined under the same condition as above, 200 mg of Mefenamic acid[Chemical name: N-(2,3-xylyl)anthranilic acid] are required to produce 25 % decrease in said carageenin-induced edema.
Anti-cardiazol activity. A drug was administered orally to mice. After 30
minutes of the dosing, 125 mg of cardiazol were injected subcutaneously t
the mice. ED50 of the drug was estimated from the number of mice
which were protected from cardiazol-induced convulsive death 60 minutes
after injection of cardiazol.

In series [7] the test system is acetic acid-induced writhings. The series is described as follows: Analgesic activity, acetic acid-writhing method. Format: in vivo, mice. As to conditions: for ED50: Mus musculus, oral, mice, 1 % acetic acid i.p., 50 % reduction in writhings. How it is done:
as §24
Analgesic activity. One % acetic acid solution was injected
intraperitoneally to mice at the dose of […] after oral
administration of a drug, and the number of writhings per mouse was
counted for 5 minutes starting at 10 minutes after injection of acetic
acid. ED50 of the drug was estimated as the dose which would produce
50 % reduction in acetic acid-induced writhings.

The conditions of series [8]: Japanese patent application No. 81910/1971; cited from earlier work.
Series [9] deals with mice. The series is described as follows: Central muscle relaxing activity (Table 1, traction, inclined plate and rotating rod methods together). As to conditions: mouse, in vivo. The procedure:
as §1, §2, §3, §4, §5, §6, §7, §8, §9, §10, §11, §12, §13, §14, §15

For series [10] the following is noted: Arzneimittel Forshung 21(1971), 238-243; U.S. Pat. No. 3317388; cited from earlier work.
In series [11] the test system is mice. The series is described as follows: Hypnotic activity, loss of righting reflex (oral, mice); therapeutic index. Format: in vivo. The settings on record: for hypnotic activity (side effect), in words: mouse, in vivo. The procedure:
as §16, §17, §18, §19, §20

In another series the test system is carageenin-induced edema. The series is described as follows: Anti-inflammatory activity, carageenin-induced edema. Type of series: in vivo, rats. How it is done:
as §24
Anti-inflammatory activity. A drug was administered orally to rats at the
dose of 30 mg/kg. To the control group was administered orally a
physiological saline solution. After one hour, one % carageenin solution
was injected subcutaneously to the rats through planta of hind legs at th
dose of 0.5 ml/rat. Then, the volume of the hind legs in the control and
medicated groups were measured at 3 hours after injection of carageenin,
and the preventive effect (%) of the drug against carageenin-induced edem
was calculated therefrom.

Series [12] has as its system mice. The series is described as follows: Acute toxicity (oral, mice, 72 hours); safety margin. Type of series: in vivo. The settings on record: vs 2-methyl-3-(o-tolyl)-6-amino-4(3H)-quinazolinone; ratio of muscle relaxing activity to acute toxicity. How it is done: as §21, §22, §23, §20
Series [13] can be described thus: Tranquilizing activity (no method given). The settings on record: in vivo.
Where [14] appears, read: HD50 / ED50 inclined plate method, read-out: Therapeutic index D/B.
The mark [15] stands for this setting: HD50 / ED50 rotating rod method, read-out: Therapeutic index D/C.
Setting [16] is: HD50 / ED50 traction method, read-out: Therapeutic index D/A.
Where [17] appears, read: LD50 / ED50 inclined plate method, read-out: Safety margin E/B.
The mark [18] stands for this setting: LD50 / ED50 rotating rod method, read-out: Safety margin E/C.
Where [19] appears, read: LD50 / ED50 traction method, read-out: Safety margin E/A.

Structures are written as SMILES.

As to `Cc1ccccc1-n1c(CF)nc2ccccc2c1=O` [2-fluoromethyl-3-(o-tolyl)-4(3H)-quinazolinone], the ED50 in the series on mice [1] came to 138 mg/kg; in the series with mice [2], 58.9 mg/kg; in the series with mice [3], 67.5 mg/kg; in series [6] (mice) it was 56.1 mg/kg; in series [7], 42.1 mg/kg. The selectivity ratio in series [4] (setting [14]) was 1.48; in series [4] (setting [15]), 1.29; in [4] (setting [16]), 0.63; in [5] (setting [17]) it was 12.1; in [5] (setting [18]) it was 10.5; in series [5] (setting [19]) it was 5.1. In series [4], the TD50 amounted to 87.3 mg/kg. Further, the LD50 at 72 h in series [5] was found to be 710 mg/kg. For the same molecule, the “hypnotic use, in words (Inoue et al)” value in [8] is given as “useful as hypnotic agents”.
For the molecule `Cc1ccccc1-n1c(CF)nc2ccc([N+](=O)[O-])cc2c1=O` [2-fluoromethyl-3-(o-tolyl)-6-nitro-4(3H)-quinazolinone], the ED50 in the series on mice [1], with mice [2] and with mice [3] was greater than 100 mg/kg each time. In series [4], the TD50 was greater than 100 mg/kg. In series [8], the “hypnotic use, in words (Inoue et al)” value is given as “useful as hypnotic agents”.
In the case of `Cc1ccccc1-n1c(C)nc2ccc(N)cc2c1=O` [2-methyl-3-(o-tolyl)-6-amino-4(3H)-quinazolinone], the ED50 in the series with mice [1] is 24 mg/kg; with mice [2], 22.5 mg/kg; in the series with mice [3], 22.5 mg/kg; in series [6] (mice), 16.9 mg/kg; in series [7], 10 mg/kg. Moreover, in series [4], the TD50 came to 33.7 mg/kg. Besides, the “muscle relaxing activity, in words” value with mice [9] is “relatively strong muscle relaxing activity”. The “muscle relaxing activity, in words (Breuer et al)” value in series [10] was “shows a muscle relaxing activity”.
Consider `CN1C(=O)CCS(=O)(=O)C1c1ccc(Cl)cc1` (stereo not drawn) [Chlormezanone, 2-(p-chlorophenyl)tetrahydro-3-methyl-4H-1,3-thiazin-4-one 1,1-dioxide], for which the ED50 is 208 mg/kg with mice [1]; 156 mg/kg with mice [2]; 222 mg/kg with mice [3]; 28.8 mg/kg in series [6] (mice); 258 mg/kg in series [7]. Besides, the selectivity ratio in [4] (setting [14]) was 2.47; in [4] (setting [15]), 1.74; in [4] (setting [16]) it was 1.86; in [5] (setting [17]) it was 8.6; in series [5] (setting [18]), 6.1; in [5] (setting [19]), 6.5. Besides, the TD50 in [4] was found to be 386 mg/kg. Besides, the “hypnotic activity (side effect), in words” value (from here on “hypnotic activity”) in the series with mice [11] is listed as “potent hypnotic activity”. In addition, in [5], the LD50 at 72 h is 1340 mg/kg.
Turning to `Cc1cccc(Nc2ccccc2C(=O)O)c1C` [Mefenamic acid, N-(2,3-xylyl)anthranilic acid], the “decrease in carageenin-induced edema” value in the series with carageenin-induced edema (200 mg of Mefenamic acid required, same condition (oral, rats)) was determined as 25%.
For `Cc1ccccc1OCC(O)CO` (stereo not drawn) [Mephenesin, 3-(o-tolyloxy)-1,2-propanediol], the ED50 was found to be 527 mg/kg with mice [1], 551 mg/kg in the series on mice [2], 498 mg/kg in the series with mice [3] and 600 mg/kg in series [6] (mice). Besides, the selectivity ratio in series [4] (setting [14]) turned out to be 1.5; in series [4] (setting [15]), 1.66; in [4] (setting [16]) it was 1.56; in series [5] (setting [17]), 3.7; in series [5] (setting [18]), 4.1; in series [5] (setting [19]), 3.8. For the same molecule, in [4], the TD50 came to 824 mg/kg. For the same molecule, the “hypnotic activity” value in the series with mice [11] is “potent hypnotic activity”. Further, the LD50 at 72 h in [5] was determined as 2020 mg/kg.
For the molecule `Cc1ccccc1-n1c(CF)nc2ccc(N)cc2c1=O` [quinazolinone derivative [I], 2-fluoromethyl-3-(o-tolyl)-6-amino-4(3H)-quinazolinone], the ED50 worked out at 20.7 mg/kg in the series on mice [1]; 19.3 mg/kg in the series with mice [2]; 22.4 mg/kg with mice [3]; 15.7 mg/kg in [6] (mice); 11.8 mg/kg in series [7]. The selectivity ratio is 2.75 in series [4] (setting [14]); 2.37 in series [4] (setting [15]); 2.57 in series [4] (setting [16]); 27.4 in series [5] (setting [17]); 23.6 in [5] (setting [18]); 25.5 in series [5] (setting [19]). Besides, in series [4], the TD50 was 53.1 mg/kg. Besides, in the series on mice [11], the “hypnotic activity” value is on record as “relatively less hypnotic activity”. Also, the “therapeutic index, times superior to Chlormezanone” value with mice [11] (vs Chlormezanone, ratio of muscle relaxing to hypnotic activity) is “about 2 times”. In addition, in the series on mice [11] (vs Mephenesin, ratio of muscle relaxing to hypnotic activity), the “therapeutic index, times superior to Mephenesin” value is recorded as “about 2 times”. For the same molecule, the LD50 at 72 h in [5] is 528 mg/kg. Also, in the series with mice [12], the “safety margin, times superior to 2-methyl-3-(o-tolyl)-6-amino-4(3H)-quinazolinone” value is “about 7 times”. The “anti-convulsive activity, in words” value in series [6] (mouse, in vivo) was “potent”. The “anti-cardiazol activity, times superior to 2-fluoromethyl-3-(o-tolyl)-4(3H)-quinazolinone” value in series [6] (vs 2-fluoromethyl-3-(o-tolyl)-4(3H)-quinazolinone, mice) came to 3.6 times. Moreover, the “anti-cardiazol activity, times superior to 2-methyl-3-(o-tolyl)-6-amino-4(3H)-quinazolinone” value in [6] (vs 2-methyl-3-(o-tolyl)-6-amino-4(3H)-quinazolinone, mice) amounted to 1.1 times. Moreover, in [6] (vs Chlormezanone, mice), the “anti-cardiazol activity (ED50), times superior to Chlormezanone” value is given as “about 2 times”. Moreover, the “analgesic activity (ED50) compared with Chlormezanone” value in [7] (acetic acid-writhing method, in words) is given as “apparently stronger than that of Chlormezanone”. For the same molecule, the “analgesic activity, in words” value in series [7] (mouse, in vivo) is on record as “potent”. Besides, in the series with carageenin-induced edema (oral, rats, 30 mg/kg, 3 hours after carageenin), the “Anti-inflammatory activity: preventive effect (%) against carageenin-induced edema” value is given as 28%. For the same molecule, the “anti-inflammatory activity, in words” value in the series on carageenin-induced edema (rat, in vivo) is on record as “potent anti-inflammatory activity”. Moreover, the “tranquilizing activity, in words” value in [13] was “potent”.

By ED50 is commonly meant the dose that gives a 50% effect, or the effect in half of the subjects. Usually LD50 stands for the dose at which mortality reaches 50%.
